In patent US20210253747A1, “COMPOSITIONS OF SOLUBLE BETA GLUCAN AND RELATED METHODS” (KEMIN INDUSTRIES, INC., priority 2020, published 2021):

Parameters: Initial absorbance (@600 nm): dose or concentration left out as unconfirmed
Text: The final criteria for the claimed composition is the ability for the dry product to redissolve into a soluble/colloidal water-based solution at an example concentration of 10 g/L. Before redissolving in water, the dry product is ground into a powder using any mechanical grinding/milling/pulverizing methods, in this case a mortar and pestle.

- Absorbance at 60 min/Initial absorbance: 0.535
- Initial absorbance (@600 nm): 1.950
- Solubility as defined by the absorbance method (soluble if the decrease is not more than 25% after 60 minutes): NOT SOLUBLE
Substance: paramylon [Sample A]
